This note sets out measurements from patent publication US20180153830A1, “SELECTIVE INHIBITORS OF UNDIFFERENTIATED CELLS” (Yissum Research Development Company of the Hebrew …, priority 2012, published 2018).

Type in all cases: cell-based
Data set [1] concerns H9 human embryonic stem cells. The data set is described as follows: CellTiter-Glo luminescent cell viability screen, H9. The following applies: pluripotent stem cells. Here is the method:
(§1) 5,000 CSES2 cells were plated in 50 μl per well of mTeSR1 medium into black 384-well clear-bottom plates (Falcon BD) pre-coated with Matrigel™ using WellMate cell dispenser (Matrix, Hudson, N.H.). 24 hours after plating, medium was replaced with 25 μl of fresh medium and 25 μl of 40 μM compound medium solutions in 1% DMSO from the intermediate compound dilution plates. The plates were incubated at 37° C., in a 5% CO2 atmosphere, for the entire duration of the screen, apart from the time required for liquid handling. Cell viability was determined 24 hours after compound treatment using CellTiter-Glo® luminescent cell viability assay kits. 50 μl of CellTiter-Glo® reagent was added to each well of the assay plates and fully mixed. After incubation at room temperature for 15 minutes, 25 μl of liquid was transferred from each well into a white opaque-bottom 384-well plate (PerkinElmer), and luminescence was measured using an EnVision® plate reader (PerkinElmer). 16 neutral control wells (0.5% DMSO) and 8 positive control wells (5 μM amsacrine hydrochloride were used to normalize the compound effect. All liquid transfer steps were handled with a Biomek® FXP Laboratory Automation Workstation (Beckman Coulter, Fullerton, Calif.) and Muitidrop Combi liquid dispenser (Thermo Fisher, Waltham, Mass.). An Assay Analyzer (Genedata, Basel, Switzerland) was used for data pattern correction and calculation. The Spotfire software (Spotfire, Somerville, Mass.) was used for data illustration.
(§2) The compounds identified as hits from the primary screen were retested at a concentration of 20 μM against three pluripotent stem cell lines (CSES2, H9 and CSES2-SO2/3) for confirmation screens.
(§3) The raw intensity data for each well were background-corrected by subtraction of the median intensities across all positive control wells on the same plate, and used to calculate the inhibitory effect of each compound per cell line. A Genedata Assay Analyzer and Condoseo were used for data pattern correction, calculation and IC50 curve fitting. A Z′ factor was determined for each plate.
In general terms: Cellular ATP, detected with luciferase, serves as a proxy for viable cell number.

The subject of data set [2] is CSES2-SO2/3 embryonic stem cells. Kind of data set: CellTiter-Glo luminescent cell viability screen, CSES2-SO2/3. Conditions: Homo sapiens; for EC50: 24 h; for inhibition at 20 µM: pluripotent stem cells. Here is the method:
as §1, §2
(§4) 696 confirmed hits from the confirmation screen were tested for profiling in a panel of 13 different cell types, using the same screening protocol described above (except in the case of embryonic stem cell-derived neural stem cells (NSCs) and mesenchymal stem cells (MSCs), for which the protocol is described below). As discussed below, compounds were tested either in dose-dependent multiple concentration manner or in single concentration manner. CSES2 and CSES2-SO2/3 cell lines and the early endodermal progenitors derived from this cell line (CSES2-SO2/3-differentiated) were screened at 8 concentrations ranging from 50 μM to 23 nM with 1:3 serial dilution steps. BJ-iPS28 cell line and the BJ fibroblasts from which it was derived were screened at 6 concentrations ranging from 50 μM to 200 nM with 1:3 serial dilution steps. Cardiomyocytes were screened in one concentration of 20 μM. HeLa and NTERA-2 cell lines were screened in duplicates of 20 μM. Kelly and Huh-7 were screened in triplicates of 20 μM. Hepatocytes were screened in duplicates of 20 μM in the original 96-well plates in which the cells arrived (40,000 cells per well, in 160 μl medium, the volumes of all reagents involved were adjusted accordingly). MSCs and NSCs were screened in duplicates of 12.5 μM.
as §3

The subject of data set [3] is BJ-iPS28 induced pluripotent stem cells. The data set is described as follows: CellTiter-Glo luminescent cell viability screen, BJ-iPS28. The following applies: Homo sapiens; for EC50: 24 h; for inhibition at 20 µM: pluripotent stem cells. Here is the method: as §1
as §4, with “BJ-iPS28 cell line and the BJ fibroblasts from which it was derived were screened at 6 concentrations ranging from 50 μM to 200 nM with 1:3 serial dilution steps.” left out
as §3
The effect of the selected compounds on human iPS cells was then determined. […]

Data set [4] can be described thus: CellTiter-Glo counter-screen, hepatocytes. The following applies: human, human embryonic stem cell-derived hepatocytes (Cellartis), read-out: Inhibition (%) ES-derived hepatocytes. Here is the method:
Human embryonic stem cell-derived hepatocytes were obtained from Cellartis (Goteborg, Sweden), and handled according to the manufacturer's instructions;
as §4
(§5) In order to identify highly-selective cytotoxic inhibitors of hPSCs, the 696 cytotoxic inhibitors of hPSCs identified as described in Example 1 were counter-screened as described in the Materials and Methods section against other cell types, representative of all germ layers and developmental stages. Importantly, many of these cell types were differentiated from human ES or iPS cells. The screened cell types included ES-derived neural stem cells (NSCs), ES-derived mesenchymal stem cells (MSCs), ES-derived endodermal progenitor cells, ES-derived hepatocytes, iPS-derived cardiomyocytes, iPS-derived fibroblasts of origin (BJ fibroblasts), and three cancer cell lines: neuroblastoma (Kelly), cervical cancer (HeLa) and hepatocarcinoma (Huh7). The cell types and their relationship to stem cells are depicted schematically in FIG. 14.

The test system of data set [5] is iPS-derived cardiomyocytes. The data set is described as follows: CellTiter-Glo counter-screen, cardiomyocytes. The following applies: Homo sapiens, Cardiomyocyte. Here is the method:
Human induced pluripotent stem cell-derived cardiomyocytes were obtained from Cellular Dynamics International (Madison, Wis.), and handled according to the manufacturer's instructions;
as §4, §5

The test system of another data set is HeLa cells. Kind of data set: CellTiter-Glo counter-screen, HeLa. Conditions: Homo sapiens, cancer cells. As to the method:
The cervical carcinoma cell line HeLa, teratocarcinoma cell line NTERA-2, and immortalized BJ fibroblast cell line, were cultured in DMEM supplemented with 10% FBS, penicillin (50 U/ml) and streptomycin (50 μg/ml).
as §4, §5

The test system of a further data set is Huh7 cells. The data set is described as follows: CellTiter-Glo counter-screen, Huh7. Conditions: Homo sapiens, Huh-7, cancer cells. As to the method: The hepatocarcinoma cell line Huh-7 was cultured in a DMEM/F12 (1:1) medium, supplemented with 10% FBS, penicillin (50 U/ml) and streptomycin (50 μg/ml).
as §4, §5

Data set [6] has as its system neuroblastoma (Kelly) cells. The data set is described as follows: CellTiter-Glo counter-screen, Kelly. The following applies: Homo sapiens, cancer cells. Here is the method: The neuroblastoma cell line Kelly was cultured in RPMI-1640 medium, supplemented with 15% fetal bovine serum (FBS), penicillin (50 U/ml) and streptomycin (50 μg/ml).
as §4, §5

Structures are written as SMILES.

As usually defined, the inhibition is the drop in the measured response relative to a control, in per cent. Broadly, the EC50 is the concentration giving half of the maximal effect. A lower EC50 goes with higher potency in that assay. With `O=C(NCCc1ccc(O)cc1)c1ccc(N2CCCCC2)cc1` [PluriSIn #4], the inhibition at 20 µM is 74.1% in data set [1]; 74.5% in data set [2]; 74.8% in data set [3]; 10.5% in data set [4]; 14.1% in data set [5]; 2.2% in the data set on HeLa cells. Further, the inhibition at 20 µM in the data set on Huh7 cells was 12.1%; in data set [6], 9.4%. The EC50 in data set [2] was determined as 4.71 µM; in data set [3], 0.75 µM.

In the case of `C(=N\C1CCC(CC2CCCCC2)CC1)/OC1CCOC1` (stereo not drawn) [PluriSIn #15], the inhibition at 20 µM worked out at 79.5% in data set [1]; 72.2% in data set [2]; 18.8% in data set [4]; 3.8% in data set [5]; 17.8% with HeLa cells; 22.2% in the data set with Huh7 cells. Further, in data set [6], the inhibition at 20 µM was 9.9%. The EC50 in data set [2] came out at 10 µM; in data set [3], 3.94 µM.

Consider `CCN(CC)C(=O)C(=O)c1c(-c2ccccc2)[nH]c2c1sc1ccccc12` [PluriSIn #12], for which the inhibition at 20 µM in data set [1] was 95.8%; in data set [2] it was 92.9%; in data set [3] it was 83.4%; in data set [4] it was -3.9%; in data set [5], -3.3%; with HeLa cells, 15.2%. For the same molecule, the inhibition at 20 µM in the data set on Huh7 cells was -1%; in data set [6] it was -0.9%. In addition, the EC50 in data set [2] came out at 6.04 µM; in data set [3], 5.4 µM.

In the case of `O=C(Nc1ccccc1)n1cc(F)c(=O)[nH]c1=O` [PluriSIn #2], the inhibition at 20 µM in data set [1] was 65.4%; in data set [2] it was 54.3%; in data set [3], 56.8%; in data set [4] it was 13.2%; in data set [5], 4.4%; in the data set on HeLa cells, -2.1%. Further, the inhibition at 20 µM is -0.2% with Huh7 cells and 3% in data set [6]. Also, the EC50 in data set [2] turned out to be 12.4 µM; in data set [3], 6.96 µM.
